Assay results as given in US20210301038A1, “POLYSIALIC ACID AND DERIVATIVES THEREOF, PHARMACEUTICAL COMPOSITION AND METHOD OF PRODUCING POLYSIALIC ACID” (Medizinische Hochschule Hannover (MHH), priority 2018, published 2021).

Legend:
Type in all cases: cell-based, mouse
[1] = test system: layer II/III - layer V synapses in mPFC slices; assay: TBS-induced LTP (fEPSP) in sham- and endoNF-treated mPFC slices from C57BL/6 mice; conditions: for LTP level 50-60 min after TBS: endoNF-treated slices, Ro 25-6981 0.3 μM, DP12 1 μg/ml, DP5 1 or 10 μg/ml, sarcosine 0.75 mM, SSR 504734 3 μM
Experimental: (§1) For endoNF treatment in C57BL/6J mice, slices were first allowed to recover for 20 min at room temperature (22-24° C.) in recording aCSF and were then placed in a 24-well plate to be incubated in 2 ml of aCSF without (sham) or with addition of endoNF (10 μg/ml) at 35° C. for 2 hours. The 24-well plate was installed in a water bath (ED, Julabo, Seelbach, Germany). For field excitatory postsynaptic potential (fEPSP) recordings in knockout and transgenic mice, mPFC slices were incubated in recording aCSF for >2 hours at room temperature before recordings. For patch-clamp recordings in knockout mice, slices were incubated first at 35° C. for 20 min and then at room temperature for >30 min before recordings started. The aCSF was continuously gassed with 95% O2/5% CO2 during all incubation steps and recordings.
(§2) Prefrontal slices (400 μm) were transferred to a submerged-type recording MC membrane chamber (volume 2 ml; Scientific Systems Design Inc., Mississauga, Ontario, Canada) perfused with oxygenated recording ACSF at a flow rate of 4 ml/min and maintained at room temperature (22-25° C.), unless stated otherwise in the “Results”-section given below. Field EPSPs were evoked and recorded using thin-walled glass electrodes (borosilicate glass, wall thickness 0.188, length 100, and outer diameter 1.5 mm, Hilgenberg, Malsfeld, Germany) filled with recording aCSF in 400 μm-thick mPFC slices. In order to stimulate electrically the input fibers of pyramidal cells, the stimulation electrode (0.3-0.5 MΩ) was inserted into layers II/III of the prelimbic cortex. The recording electrode (2-2.5 MΩ) was placed in the vicinity of dendrites and cell bodies of pyramidal neurons in layer V (Huang et al., 2004).
(§3) Before LTP induction, basal synaptic transmission was recorded in each slice and the relationship between stimulus intensity and fEPSP slope was measured. Basal fEPSPs were evoked at 0.05 Hz for at least 10 min. The supramaximal slope was determined by gradually increasing the stimulation intensity until a population spike in the fEPSP became first visible. The stimulation intensity was adjusted to elicit a basal fEPSP with a slope of approximately 50% of the supramaximal value.
(§4) LTP was induced by application of five trains of theta-burst stimulation (TBS) with an inter-theta-train interval of 20 s (Brennaman et al., 2011). Each train consisted of 8 bursts delivered at 5 Hz. Each burst consisted of four pulses delivered at 100 Hz. Duration of pulses was 0.2 ms. For calculation of the LTP level, the mean fEPSP slope was measured between 50-60 min after TBS delivery, and it was then normalized to mean baseline fEPSP slope during 0-10 min before TBS. Stimulus artifacts in representative fEPSP examples in figures were blanked to facilitate the perception of fEPSPs recorded in the mPFC. Recording and analysis of LTP in St8Sia4^−/− mice was performed in a blind manner.
The enzyme endosialidase NF (endoNF) (Stummeyer et al., 2005) and the short form of polysialic acid composed of 10 or twelve sialic acid residues (DP10 and DP12) were purified as described previously (Keys et al., 2014). Sialic acid (N-acetylneuraminic acid, DP1) and the pentamer of sialic acid sodium salt (DP5) were obtained from EY Laboratories (San Mateo, Calif., USA). DMB-labelled DP2 and DP12, and non-labelled avDP10-9OAc were synthesized in the laboratory of Rita Gerardy-Schahn (see sections Synthesis of DMB-DP2 and DMB-DP12 and Synthesis of avDP10-9OAc, respectively). […]

[2] = test system: mPFC slices from St8sia4−/− mice; assay: TBS-induced LTP in mPFC slices from ST8SIA4-deficient mice and wild-type littermates; conditions: Ro 25-6981 0.3 μM, DP12 1 μg/ml, sarcosine 0.75 mM; for LTP magnitude: St8sia4+/+ mice; for LTP level 50-60 min after TBS: St8sia4−/− mice
Experimental: as §1, §2, §3, §4

[3] = test system: dissociated hippocampal cultures (primary neural cells); assay: MTT assay of neural cell viability; conditions: 30 to 1000 nM, 48 hours, from 10th day in vitro; DP10 effect at 30, 100 and 300 nM
Experimental: Primary hippocampal cells were dissociated from embryonic mice on embryonic day 18. To prepare the primary neural cultures, pregnant C57/BL6J mice were sacrificed by cervical dislocation. Embryos were decapitated, and the hippocampi isolated from brains under sterile conditions and dissected. Enzymatic digestion by 0.25% trypsin/EDTA solution was followed by separation of the cells in serum-containing medium via trituration (10 passes, 1 ml pipette). The primary cells were seeded onto 96-well plates coated with 100 μg/ml poly-lysine and 20 μg/ml laminin. The plating density was 20,000 cells per well. First, 200 μl Dulbecco's modified Eagle's medium (DMEM) was applied per well (supplemented with 1% penicillin-streptomycin and 1% L-glutamine and 2% B27). After incubation for 2 h at 37° C./5% CO2, the medium was exchanged with the pre-warmed Neurobasal medium including 1% penicillin-streptomycin, 1% L-glutamine, and 2% B27. The cells—predominantly neurons and astrocytes—were incubated at 37° C. in 5% CO2 humidified atmosphere for 10 days before administration of reagents.
The assay was performed as described elsewhere with minor modifications (Khalid et al., 2018). Primary neural cells (see above) grown in a 96-well plate were exposed to drugs/vehicles for 48 h at 37° C./5% CO2. After aspiration of culture media, a washing was done with 100 μl phosphate buffered saline (PBS, pH=7.2). Then, PBS was completely removed, and 100 μl phenol red-free pre-warmed Neurobasal media and 50 μl MTT solution (3-(4,5-dimethylthiazol-2-yl)-2,5-diphenyltetrazolium bromide, 5 mg/ml; dissolved in PBS) were added to each well and plates were incubated for 4 h in an incubator. […] DMSO destroyed the cells and released the formazan, which was detected by optical density value at 560 nm, measured using a plate reader. Optical density values for wells containing cells were corrected by subtracting values measured in cell-free wells prepared and treated in the same way as wells containing control cells.

Row | Molecule | LTP level 50-60 min after TBS [1] | LTP magnitude ([1]; sham-treated slices, 0.3 μM) | LTP magnitude [2] | LTP level 50-60 min after TBS [2] | effect on neural cell viability [3]
1 | C[C@@H](CN1CCC(Cc2ccccc2)CC1)[C@@H](O)c1ccc(O)cc1.O=C(O)/C=C\C(=O)O [Ro 25-6981, (αR,βS)-α-(4-hydroxyphenyl)-β-methyl-4-(phenylmethyl)-1-piperidinepropanol maleate] | full restoration of LTP levels | no effect | no effect | full restoration of LTP levels | no effects
2 | (α(2→8)Neu5Ac)12 [DP12] | full restoration of LTP levels | – | no effect | full restoration of LTP levels | No effects
